One assay addresses human cyclin D1-CDK4 (Homo sapiens, UniProt P11802). In words: FlashPlate kinase assay, cyclin D1-CDK4. The note with it: Rb protein substrate, 1 μM ATP. The assay is classed as biochemical. How it is done: (§1) To determine inhibition of Cdk4, Cdk2 and Cdk1 activity, kinase assays were conducted using FlashPlate™ assays (NEN™-Life Science Products). FlashPlate assays were performed using recombinant human cyclin B-CDK1, human cyclin E-CDK2 or human cyclin D1-CDK4 complexes. GST-cyclinE (GST-cycE), CDK2, GST-cyclinB (GST-cycB), CDK1, GST-CDK4 and cyclin D1 (cycD1) cDNA clones in baculovirus vectors were provided by Dr. W. Harper at the Baylor College of Medicine, Houston, Tex.
(§2) The expression of the 62Kd protein was under the control of an IPTG inducible promoter in an M15 E. coli strain. Cells were lysed by sonication and purification was carried out by binding lysates at pH 8.0 to a Ni-chelated agarose column pretreated with 1 mM imidazole. The resin was then washed several times with incrementally decreasing pH buffers to pH 6.0, and eluted with 500 mM imidazole. Eluted protein was dialysed against 20 mM HEPES pH 7.5, 30% glycerol, 200 mM NaCl, and 1 mM DTT. Purified Rb fusion protein stocks were quantitated for protein concentration, aliquoted, and stored at −70° C.
(§3) For all three kinase assays reported herein, 96-well FlashPlates were coated with Rb protein at 10 μg/ml, using 100 μl per well. Plates were incubated at 4° C. overnight or at room temperature for 3 hours on a shaker. To control for nonspecific phosphorylation, one row of wells was coated with 100 μl/well coating buffer (20 mM HEPES, 0.2 M NaCl). Plates were then washed twice with wash buffer (0.01% Tween 20 in phosphate-buffered saline). Compounds to be tested (“test compounds”) were added to the wells at 5×final concentration. Reactions were initiated by immediate addition of 40 μl reaction mix (25 mM HEPES, 20 mM MgCl2, 0.002% Tween 20, 2 mM DTT, 1 μM ATP, 4 nM ^33P-ATP) and a sufficient amount of enzyme to give counts that were at least 10-fold above background. Plates were incubated at room temperature on a shaker for 30 minutes. Plates were washed four times with the wash buffer, sealed, and counted on the TopCount scintillation counter (Packard Instrument Co., Downers Grove, Ill.]. The percent inhibition of Rb phosphorylation, which is a measure of the inhibition of CDK activity, was determined according to the following formula: [formula]
(§4) where “test compound” refers to the average counts per minute of the test duplicates, “nonspecific” refers to the average counts per minute when no CyclinD/Cdk4, etc., was added, and “total” refers to the average counts per minute when no compound was added.

The target of another assay is human cyclin E-CDK2 (Homo sapiens, UniProt P24941). In words: FlashPlate kinase assay, cyclin E-CDK2. The assay is classed as biochemical. Particulars: Rb protein substrate, 1 μM ATP. How it is done: as §1, §2, §3, §4
The next assay deals with human cyclin B-CDK1 (Homo sapiens, UniProt P06493). In words: FlashPlate kinase assay, cyclin B-CDK1. Type of assay: biochemical. The note with it: Rb protein substrate, 1 μM ATP. How it is done:
as §1, §2, §3, §4

A further assay deals with HCT116. In words: Tetrazolium dye (MTT) proliferation assay. Type of assay: cell-based. The note with it: Homo sapiens, HCT-116; HCT116 colorectal carcinoma cell line. How it is done: The cell line used was HCT116, a colorectal carcinoma cell line obtained from the American Type Cell Culture Collection (ATCC;
Rockville, Md.). The cells were grown in McCoy's 5A medium supplemented with 10% FCS and L-glutamine.
Cells were plated at the appropriate seeding density to give logarithmic growth over the course of the assay in a 96-well tissue culture plate. Plates were incubated overnight at 37° C. in a humidified incubator with 5% CO2. The next day, test compounds were serially diluted to four times the final concentration in the appropriate medium containing 1.2% DMSO. One-fourth final volume of each dilution was added in duplicate to the plates containing cells. The same volume of 1.2% DMSO in medium was added to a row of “control wells” such that the final concentration of DMSO in each well was 0.3%. Wells to which no cells were added served as the “blank.” Wells to which no inhibitor was added served as “no inhibitor control.” The plates were) returned to the incubator, and at set time points (determined by their growth curves) plates were analyzed as described below.
3-(4,5-dimethylthiazole-2-yl)-2,5-diphenyl-2H-tetrazolium bromide (thiazolyl blue; MTT; Sigma) was added to each well to yield a final concentration of 1 mg/ml. Plates were returned to the incubator for 2.5-3 hours at 37° C. The MTT-containing medium was removed and the resulting formazan metabolite was solubilized in 100% ethanol with shaking for 15 minutes at room temperature. Absorbance readings were taken in a microtiter plate reader (Dynatech and Molecular Devices plate readers were used interchangeably) at a wavelength of 570 nm with a 650 nm reference. Percent inhibition (% INH) is calculated by subtracting the absorbance of the blank well from all wells, then subtracting the ratio of the average absorbance of each test duplicate (SAVE) by the average of the controls (CAVE) from 1.00. The final number is then multiplied by 100 (% INH=(1.00−SAVE/CAVE)×100).

Another assay deals with Cdk1 (Homo sapiens, UniProt P06493). Particulars: cited from earlier work.
Chain of Cdk1 (P06493 whole entry, species assumed): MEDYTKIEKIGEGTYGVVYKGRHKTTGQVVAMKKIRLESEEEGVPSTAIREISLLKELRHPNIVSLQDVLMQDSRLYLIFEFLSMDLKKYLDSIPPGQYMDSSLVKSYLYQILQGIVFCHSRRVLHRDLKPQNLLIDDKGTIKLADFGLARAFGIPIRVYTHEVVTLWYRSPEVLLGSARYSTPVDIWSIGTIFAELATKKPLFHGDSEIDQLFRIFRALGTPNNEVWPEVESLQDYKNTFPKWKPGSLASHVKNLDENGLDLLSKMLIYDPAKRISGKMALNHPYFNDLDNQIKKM
Chain of Cdk1 (P14635 whole entry partner, species assumed): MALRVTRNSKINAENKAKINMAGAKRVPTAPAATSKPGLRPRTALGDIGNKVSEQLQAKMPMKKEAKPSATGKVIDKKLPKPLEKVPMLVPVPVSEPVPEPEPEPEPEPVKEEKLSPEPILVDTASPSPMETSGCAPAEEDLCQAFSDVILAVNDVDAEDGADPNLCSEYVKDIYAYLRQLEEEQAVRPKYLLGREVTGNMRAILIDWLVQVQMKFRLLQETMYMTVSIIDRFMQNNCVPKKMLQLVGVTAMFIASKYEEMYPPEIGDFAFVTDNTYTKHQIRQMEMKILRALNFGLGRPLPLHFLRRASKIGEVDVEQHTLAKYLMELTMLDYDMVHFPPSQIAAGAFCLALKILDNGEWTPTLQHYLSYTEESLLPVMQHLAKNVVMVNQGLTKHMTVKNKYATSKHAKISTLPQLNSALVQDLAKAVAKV
Another assay concerns the target Cdk2 (Homo sapiens, UniProt P24941). Particulars: cited from earlier work.
The next assay deals with Cdk4 (Homo sapiens, UniProt P11802). Particulars: cited from earlier work.
Chain of Cdk4 (P11802 whole entry, species assumed): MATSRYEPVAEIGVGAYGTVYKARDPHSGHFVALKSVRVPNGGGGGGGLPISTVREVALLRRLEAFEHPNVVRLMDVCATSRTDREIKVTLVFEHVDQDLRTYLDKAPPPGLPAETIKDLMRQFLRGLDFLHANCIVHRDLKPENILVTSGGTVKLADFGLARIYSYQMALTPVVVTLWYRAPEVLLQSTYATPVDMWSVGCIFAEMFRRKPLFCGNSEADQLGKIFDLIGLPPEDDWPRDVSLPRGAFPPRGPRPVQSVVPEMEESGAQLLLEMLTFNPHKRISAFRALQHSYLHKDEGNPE
Chain of Cdk4 (P24385 whole entry partner, species assumed): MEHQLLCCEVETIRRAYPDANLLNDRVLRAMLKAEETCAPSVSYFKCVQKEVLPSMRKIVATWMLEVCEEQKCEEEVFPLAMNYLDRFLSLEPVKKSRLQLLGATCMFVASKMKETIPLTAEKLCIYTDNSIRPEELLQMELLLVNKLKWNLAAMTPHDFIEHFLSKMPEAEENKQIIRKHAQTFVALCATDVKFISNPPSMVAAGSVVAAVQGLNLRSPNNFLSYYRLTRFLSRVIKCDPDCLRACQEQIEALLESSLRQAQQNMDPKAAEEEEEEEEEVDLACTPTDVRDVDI
For the next assay, the system named is cells. The note with it: cited from earlier work.
In the next assay the test system is PKC. Particulars: cited from earlier work.

Chain of human cyclin D1-CDK4 (P11802 whole entry): as the sequence (P11802 whole entry, species assumed) above
Chain of human cyclin D1-CDK4 (P24385 whole entry partner): as the sequence (P24385 whole entry partner, species assumed) above
Chain of human cyclin B-CDK1 (P06493 whole entry): as the sequence (P06493 whole entry, species assumed) above
Chain of human cyclin B-CDK1 (P14635 whole entry partner): as the sequence (P14635 whole entry partner, species assumed) above

Regarding `CN1CCN(c2ccc(Nc3nc(N)c(C(=O)c4ccc(NCCO)c([N+](=O)[O-])c4)s3)cc2)CC1` [Example 57, [4-Amino-2-[[4-(4-methyl-1-piperazinyl)phenyl]amino]-5-thiazolyl][4-(2-hydroxyethyl)amino-3-nitrophenyl]methanone], the IC50 against human cyclin D1-CDK4 came to 0.009 µM; on human cyclin E-CDK2, 1.9 µM; against human cyclin B-CDK1, 0.9 µM; with HCT116, 2.1 µM.

`CN1CCN(c2ccc(Nc3nc(N)c(C(=O)c4ccc(N5CCCC5)c([N+](=O)[O-])c4)s3)cc2)CC1` [Example 58, [4-Amino-2-[[4-(4-methyl-1-piperazinyl)phenyl]amino]-5-thiazolyl][3-nitro-4-(1-pyrrolidinyl)phenyl]methanone]: the IC50 against human cyclin D1-CDK4 is 0.019 µM; against human cyclin E-CDK2, 2.4 µM; against human cyclin B-CDK1, 3.9 µM; in the assay with HCT116, 3.1 µM.

In the case of `CN1CCN(c2ccc(Nc3nc(N)c(C(=O)c4ccc(N5CCOCC5)c([N+](=O)[O-])c4)s3)cc2)CC1` [Example 59, [4-Amino-2-[[4-(4-methyl-1-piperazinyl)phenyl]amino]-5-thiazolyl][3-nitro-4-(4-morpholinyl)phenyl]methanone], the IC50 against human cyclin D1-CDK4 came out at 0.024 µM; at human cyclin E-CDK2 it was 4.4 µM; on human cyclin B-CDK1 it was 4.3 µM; in the assay with HCT116 it was 3.9 µM.

Consider `COCCNc1ccc(C(=O)c2sc(Nc3ccc(N4CCN(C)CC4)cc3)nc2N)cc1[N+](=O)[O-]` [Example 60, [4-Amino-2-[[4-(4-methyl-1-piperazinyl)phenyl]amino]-5-thiazolyl][3-nitro-4-[(2-methoxyethyl)amino]phenyl]methanone], for which the 50% inhibitory concentration (IC50) was 0.017 µM on human cyclin D1-CDK4, 7.9 µM on human cyclin E-CDK2, 5.9 µM at human cyclin B-CDK1 and 4.9 µM with HCT116.

For `CC(C)C[C@H](CO)Nc1ccc(C(=O)c2sc(Nc3ccc(N4CCN(C)CC4)cc3)nc2N)cc1[N+](=O)[O-]` [Example 63, (R)-[4-Amino-2-[[4-(4-methyl-1-piperazinyl)phenyl]amino]-5-thiazolyl][3-nitro-4-[[1-(hydroxymethyl)-3-methylbutyl]amino]phenyl]methanone], the IC50 was determined as 0.025 µM at human cyclin D1-CDK4, 5.3 µM against human cyclin E-CDK2, 5.2 µM on human cyclin B-CDK1 and 1.3 µM with HCT116.

On to `CN1CCN(c2ccc(Nc3nc(N)c(C(=O)c4ccc(N5CCC(O)CC5)c([N+](=O)[O-])c4)s3)cc2)CC1` [Example 64, [4-Amino-2-[[4-(4-methyl-1-piperazinyl)phenyl]amino]-5-thiazolyl][3-nitro-4-(4-hydroxy-1-piperidinyl)phenyl]methanone], for which the IC50 at human cyclin D1-CDK4 came out at 0.009 µM; against human cyclin E-CDK2, 4.8 µM; against human cyclin B-CDK1, 3.5 µM; in the assay with HCT116, 8 µM.

For the molecule `CN1CCN(c2ccc(Nc3nc(N)c(C(=O)c4ccc(N5CCCC5)c(N)c4)s3)cc2)CC1` [Example 65], the IC50 against human cyclin D1-CDK4 amounted to 0.026 µM; against human cyclin E-CDK2, 7.4 µM; on human cyclin B-CDK1 it was 2.2 µM; in the assay with HCT116 it was 1.2 µM.

For `CC(C)C[C@H](CO)Nc1ccc(C(=O)c2sc(Nc3ccc(N4CCN(C)CC4)cc3)nc2N)cc1N` [Example 66, (R)-[3-Amino-4-[[1-(hydroxymethyl)-3-methylbutyl]amino]phenyl][4-amino-2-[[4-(4-methyl-1-piperazinyl)phenyl]amino]-5-thiazolyl]methanone], the half-maximal inhibitory concentration (IC50) against human cyclin D1-CDK4 amounted to 0.02 µM; against human cyclin E-CDK2, 3.8 µM; on human cyclin B-CDK1, 9.6 µM; in the assay on HCT116, 10.8 µM.

Consider `CN1CC[C@H](c2c(O)cc(O)c3c(=O)cc(-c4ccccc4Cl)oc23)[C@H](O)C1` [Flavopiridol], for which the “inhibition of Cdk1” value at Cdk1 was “inhibits”. Further, the “inhibition of Cdk2” value at Cdk2 was “inhibits”. The “inhibition of Cdk4” value at Cdk4 is “inhibits”. Further, the cell cycle block result with cells is “blocks cells in both G1 and G2 phases”. The “inhibition of PKC” value with PKC is on record as “weaker inhibitor”.

Values taken from patent US6756374B2, “Diaminothiazoles having antiproliferative activity” (Hoffmann-La Roche Inc., priority 2001, dated 2004).
